Key:
Test in all cases: cells
[1] = test system: C-33-A; type: functional, cell-based, Homo sapiens; details: Homo sapiens, C-33-A;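 further: cell viability assay measuring growth inhibition of C-33-A cells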
Description: SANGER: Inhibition of human C-33-A cell growth in a cell viability assay.

[2] = test system: PC-14; type: functional, cell-based, Homo sapiens; details: Homo sapiens, PC-14;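 further: cell viability assay measuring inhibition of PC-14 cell growth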
Description: SANGER: Inhibition of human PC-14 cell growth in a cell viability assay.

[3] = test system: HT; type: functional, cell-based; details: Homo sapiens
Description: SANGER: Inhibition of human HT cell growth in a cell viability assay.

[4] = test system: NCI-H720; type: functional, cell-based; details: Homo sapiens;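 further: growth inhibition of human NCI-H720 cells determined by a cell viability assay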
Description: SANGER: Inhibition of human NCI-H720 cell growth in a cell viability assay.

[5] = test system: NCI-H226; type: functional, cell-based, Homo sapiens; details: Homo sapiens, NCI-H226;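 further: cell viability read-out used to gauge growth inhibition of the cells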
Description: SANGER: Inhibition of human NCI-H226 cell growth in a cell viability assay.

[6] = test system: CTV-1; type: functional, cell-based; details: Homo sapiens;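 further: growth inhibition of the cell line, read out with a cell viability assay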
Description: SANGER: Inhibition of human CTV-1 cell growth in a cell viability assay.

[7] = test system: CAL-12T; type: functional, cell-based, Homo sapiens; details: Homo sapiens, CAL-12T;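 further: growth inhibition of human CAL-12T cells, read out with a cell viability assay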
Description: SANGER: Inhibition of human CAL-12T cell growth in a cell viability assay.

[8] = test system: DU-145; type: functional, cell-based, Homo sapiens; details: Homo sapiens, DU-145
Description: SANGER: Inhibition of human DU-145 cell growth in a cell viability assay.

[9] = test system: GOTO; type: functional, cell-based, Homo sapiens; details: Homo sapiens, GOTO;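 further: growth inhibition of GOTO cells, read out by a cell viability assay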
Description: SANGER: Inhibition of human GOTO cell growth in a cell viability assay.

[10] = test system: EW-11; type: functional, cell-based, Homo sapiens; details: Homo sapiens, EW-11;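 further: growth inhibition of human EW-11 cells, measured with a cell viability assay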
Description: SANGER: Inhibition of human EW-11 cell growth in a cell viability assay.

[11] = test system: MOLT-4; type: functional, cell-based; details: Homo sapiens;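 further: growth inhibition of MOLT-4 cells, determined with a cell viability readout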
Description: SANGER: Inhibition of human MOLT-4 cell growth in a cell viability assay.

[12] = test system: U2OS; type: functional, cell-based, Homo sapiens, U-2-OS; details: Homo sapiens, U2OS;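 further: growth inhibition of human U-2-OS cells, determined with a cell viability assay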
Description: SANGER: Inhibition of human U-2-OS cell growth in a cell viability assay.

[13] = test system: IA-LM; type: functional, cell-based, Homo sapiens; details: Homo sapiens, IA-LM;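 further: cell viability assay measuring growth inhibition of human IA-LM cells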
Description: SANGER: Inhibition of human IA-LM cell growth in a cell viability assay.

[14] = test system: SK-N-FI; type: functional, cell-based, Homo sapiens; details: Homo sapiens, SK-N-FI;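 further: cell viability assay measuring growth inhibition of human SK-N-FI cells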
Description: SANGER: Inhibition of human SK-N-FI cell growth in a cell viability assay.

[15] = test system: HMV-2 cell line; type: functional, cell-based, Homo sapiens; details: Homo sapiens, HMV-2;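 further: growth inhibition of HMV-II cells, read out with a cell viability assay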
Description: SANGER: Inhibition of human HMV-II cell growth in a cell viability assay.

[16] = test system: NB7; type: functional, cell-based; details: Homo sapiens;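 further: growth inhibition of NB7 cells, read out with a cell viability assay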
Description: SANGER: Inhibition of human NB7 cell growth in a cell viability assay.

[17] = test system: GP5d; type: functional, cell-based, Homo sapiens; details: Homo sapiens, GP5d;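 further: growth inhibition of human GP5d cells, read out with a cell viability assay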
Description: SANGER: Inhibition of human GP5d cell growth in a cell viability assay.

[18] = test system: PSN1; type: functional, cell-based, Homo sapiens; details: Homo sapiens, PSN1;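 further: suppression of growth of human PSN1 cells, read out by a cell viability assay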
Description: SANGER: Inhibition of human PSN1 cell growth in a cell viability assay.

[19] = test system: COLO-679; type: functional, cell-based, Homo sapiens; details: Homo sapiens, COLO-679
Description: SANGER: Inhibition of human COLO-679 cell growth in a cell viability assay.

[20] = test system: NCI-H2052; type: functional, cell-based, Homo sapiens; details: Homo sapiens, NCI-H2052;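 further: growth inhibition of NCI-H2052 cells, read out with a cell viability assay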
Description: SANGER: Inhibition of human NCI-H2052 cell growth in a cell viability assay.

[21] = test system: GI-ME-N; type: functional, cell-based, Homo sapiens; details: Homo sapiens, GI-ME-N;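 further: growth inhibition of human GI-ME-N cells, read out with a cell viability assay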
Description: SANGER: Inhibition of human GI-ME-N cell growth in a cell viability assay.

[22] = test system: U-251; type: functional, cell-based, Homo sapiens; details: Homo sapiens, U-251;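 further: growth inhibition of human U-251 cells, read out through a cell viability assay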
Description: SANGER: Inhibition of human U251 cell growth in a cell viability assay.

[23] = test system: RT-112; type: functional, cell-based, Homo sapiens; details: Homo sapiens, RT-112
[24] = test system: HN; type: functional, cell-based, Homo sapiens; details: Homo sapiens, HN
Description: SANGER: Inhibition of human HN cell growth in a cell viability assay.

[25] = test system: HCC1395; type: functional, cell-based, Homo sapiens; details: Homo sapiens, HCC1395;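 further: growth inhibition of HCC1395 cells, read out by a cell viability assay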
Description: SANGER: Inhibition of human HCC1395 cell growth in a cell viability assay.

[26] = test system: COR-L23; type: functional, cell-based, Homo sapiens; details: Homo sapiens, COR-L23;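 further: cell viability assay measuring how strongly compounds suppress growth of COR-L23 cells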
Description: SANGER: Inhibition of human COR-L23 cell growth in a cell viability assay.

[27] = test system: DOK; type: functional, cell-based, Homo sapiens; details: Homo sapiens, DOK;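 further: cell viability assay read-out, values reflect inhibition of cell growth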
Description: SANGER: Inhibition of human DOK cell growth in a cell viability assay.

[28] = test system: SK-LMS-1; type: functional, cell-based, Homo sapiens; details: Homo sapiens, SK-LMS-1;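 further: growth inhibition of human SK-LMS-1 cells, read out with a cell viability assay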
Description: SANGER: Inhibition of human SK-LMS-1 cell growth in a cell viability assay.

[29] = test system: HGC-27; type: functional, cell-based, Homo sapiens; details: Homo sapiens, HGC-27;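 further: growth inhibition of human HGC-27 cells, read out in a cell viability assay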
Description: SANGER: Inhibition of human HGC-27 cell growth in a cell viability assay.

[30] = test system: SAS; type: functional, cell-based, Homo sapiens; details: Homo sapiens, SAS;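 further: growth inhibition of SAS cells, read out with a cell viability assay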
Description: SANGER: Inhibition of human SAS cell growth in a cell viability assay.

[31] = test system: NEC8; type: functional, cell-based, Homo sapiens; details: Homo sapiens, NEC8;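 further: growth inhibition of human NEC8 cells, read out by a cell viability assay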
Description: SANGER: Inhibition of human NEC8 cell growth in a cell viability assay.

[32] = test system: CAL-51; type: functional, cell-based, Homo sapiens; details: Homo sapiens, CAL-51;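 further: human CAL-51 cell line, growth inhibition read out via a cell viability assay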
Description: SANGER: Inhibition of human CAL-51 cell growth in a cell viability assay.

[33] = test system: KE-37; type: functional, cell-based; details: Homo sapiens;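 further: growth inhibition of KE-37 cells, read out with a cell viability assay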
[34] = test system: RMG-I; type: functional, cell-based, Homo sapiens; details: Homo sapiens, RMG-I;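 further: growth inhibition of human RMG-I cells, read out with a cell viability assay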
Description: SANGER: Inhibition of human RMG-I cell growth in a cell viability assay.

[35] = test system: TCC-SUP; type: functional, cell-based, Homo sapiens; details: Homo sapiens, TCC-SUP;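 further: growth inhibition of TCC-SUP cells, read out with a cell viability assay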
Description: SANGER: Inhibition of human TCCSUP cell growth in a cell viability assay.

[36] = test system: NCI-H2030; type: functional, cell-based, Homo sapiens; details: Homo sapiens, NCI-H2030;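 further: growth inhibition of human NCI-H2030 cells, read out by a cell viability assay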
Description: SANGER: Inhibition of human NCI-H2030 cell growth in a cell viability assay.

[37] = test system: HuO-3N1; type: functional, cell-based, Homo sapiens; details: Homo sapiens, HuO-3N1;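 further: cell viability readout used to measure how strongly compounds suppress proliferation of human HuO-3N1 cells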
Description: SANGER: Inhibition of human HuO-3N1 cell growth in a cell viability assay.

[38] = test system: GMS-10; type: functional, cell-based, Homo sapiens; details: Homo sapiens, GMS-10;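 further: growth inhibition of GMS-10 cells, read out as cell viability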
Description: SANGER: Inhibition of human GMS-10 cell growth in a cell viability assay.

[39] = test system: NCI-H2170; type: functional, cell-based, Homo sapiens; details: Homo sapiens, NCI-H2170;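 further: cell viability assay measuring growth inhibition of human NCI-H2170 cancer cells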
[40] = test system: DEL; type: functional, cell-based; details: Homo sapiens;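 further: growth inhibition of the human DEL cell line, read out with a cell viability assay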
Description: SANGER: Inhibition of human DEL cell growth in a cell viability assay.

[41] = test system: OS-RC-2; type: functional, cell-based, Homo sapiens; details: Homo sapiens, OS-RC-2;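 further: growth inhibition of human OS-RC-2 cells, measured by a cell viability assay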
Description: SANGER: Inhibition of human OS-RC-2 cell growth in a cell viability assay.

[42] = test system: VA-ES-BJ; type: functional, cell-based, Homo sapiens; details: Homo sapiens, VA-ES-BJ;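 further: growth inhibition of the VA-ES-BJ cell line, read out by a cell viability assay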
Description: SANGER: Inhibition of human VA-ES-BJ cell growth in a cell viability assay.

[43] = test system: NCI-H810; type: functional, cell-based, Homo sapiens; details: Homo sapiens, NCI-H810;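 further: IC50 reflects inhibition of cancer cell line growth, read out with a cell viability assay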
Description: SANGER: Inhibition of human NCI-H810 cell growth in a cell viability assay.

[44] = test system: LU-139; type: functional, cell-based; details: Homo sapiens
Description: SANGER: Inhibition of human LU-139 cell growth in a cell viability assay.

[45] = test system: KYSE-450; type: functional, cell-based; details: Homo sapiens;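 further: cell growth inhibition measured by a viability assay in human KYSE-450 cells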
Description: SANGER: Inhibition of human KYSE-450 cell growth in a cell viability assay.

[46] = test system: TE-9; type: functional, cell-based, Homo sapiens; details: Homo sapiens, TE-9;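 further: cell growth inhibition, measured with a cell viability readout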
Description: SANGER: Inhibition of human TE-9 cell growth in a cell viability assay.

[47] = test system: ASPC1; type: functional, cell-based, Homo sapiens; details: Homo sapiens, ASPC1;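 further: growth inhibition of AsPC-1 cells, read out with a cell viability assay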
Description: SANGER: Inhibition of human AsPC-1 cell growth in a cell viability assay.

[48] = test system: MEG-01; type: functional, cell-based; details: Homo sapiens;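 further: growth inhibition of MEG-01 cells, read out by a cell viability assay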
Description: SANGER: Inhibition of human MEG-01 cell growth in a cell viability assay.

[49] = test system: LoVo; type: functional, cell-based; details: Homo sapiens;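 further: growth inhibition of human LoVo cells, read out with a cell viability assay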
Description: SANGER: Inhibition of human LoVo cell growth in a cell viability assay.

[50] = test system: NCI-H2452; type: functional, cell-based, Homo sapiens; details: Homo sapiens, NCI-H2452;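 further: growth inhibition of NCI-H2452 cells, read out with a cell viability assay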
Description: SANGER: Inhibition of human NCI-H2452 cell growth in a cell viability assay.

[51] = test system: KP-N-YN; type: functional, cell-based; details: Homo sapiens;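 further: growth inhibition of KP-N-YN cells, read out with a cell viability assay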
Description: SANGER: Inhibition of human KP-N-YN cell growth in a cell viability assay.

[52] = test system: OVCAR-3; type: functional, cell-based, Homo sapiens; details: Homo sapiens, OVCAR-3;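 further: growth inhibition of human OVCAR-3 cells, determined by a cell viability assay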
Description: SANGER: Inhibition of human OVCAR-3 cell growth in a cell viability assay.

**Q.** With O=C(NOCC1CC1)c1ccc(F)c(F)c1Nc1ccc(I)cc1Cl [CI-1040] as the molecule, how does the IC50 [1] read?
**A.** > 10 µM

**Q.** What about the IC50 [2] of the same molecule?
**A.** > 10000 nM

**Q.** And the IC50 [3]?
**A.** > 10 µM

**Q.** And the IC50 [4]?
**A.** > 10000 nM

**Q.** And the IC50 [5]?
**A.** > 10 µM

**Q.** And the IC50 [6]?
**A.** > 10 µM

**Q.** What about the IC50 [7] of the same molecule?
**A.** 8.66 µM

**Q.** And the IC50 [8]?
**A.** > 10000 nM

**Q.** And the IC50 [9]?
**A.** > 10 µM

**Q.** What about the IC50 [10] of the same molecule?
**A.** > 10 µM

**Q.** What about the IC50 [11] of the same molecule?
**A.** > 10 µM

**Q.** What about the IC50 [12] of the same molecule?
**A.** 3.67 µM

**Q.** And the IC50 [13]?
**A.** > 10 µM

**Q.** And the IC50 [14]?
**A.** 8.81 µM

**Q.** And the IC50 [15]?
**A.** 645 nM

**Q.** And the IC50 [16]?
**A.** 2340 nM

**Q.** What about the IC50 [17] of the same molecule?
**A.** 983 nM

**Q.** And the IC50 [18]?
**A.** 962 nM

**Q.** What about the IC50 [19] of the same molecule?
**A.** 327 nM

**Q.** And the IC50 [20]?
**A.** > 10 µM

**Q.** And the IC50 [21]?
**A.** > 10 µM

**Q.** What about the IC50 [22] of the same molecule?
**A.** > 10 µM

**Q.** And the IC50 [23]?
**A.** 1590 nM

**Q.** What about the IC50 [24] of the same molecule?
**A.** 2160 nM

**Q.** And the IC50 [25]?
**A.** > 10 µM

**Q.** And the IC50 [26]?
**A.** 7.24 µM

**Q.** And the IC50 [27]?
**A.** 2360 nM

**Q.** And the IC50 [28]?
**A.** > 10 µM

**Q.** And the IC50 [29]?
**A.** > 10 µM

**Q.** And the IC50 [30]?
**A.** > 10000 nM

**Q.** What about the IC50 [31] of the same molecule?
**A.** > 10 µM

**Q.** And the IC50 [32]?
**A.** > 10 µM

**Q.** And the IC50 [33]?
**A.** > 10 µM

**Q.** And the IC50 [34]?
**A.** > 10 µM

**Q.** And the IC50 [35]?
**A.** > 10 µM

**Q.** And the IC50 [36]?
**A.** > 10 µM

**Q.** And the IC50 [37]?
**A.** > 10 µM

**Q.** What about the IC50 [38] of the same molecule?
**A.** > 10 µM

**Q.** And the IC50 [39]?
**A.** > 10000 nM

**Q.** And the IC50 [40]?
**A.** > 10 µM

**Q.** What about the IC50 [41] of the same molecule?
**A.** > 10 µM

**Q.** What about the IC50 [42] of the same molecule?
**A.** > 10 µM

**Q.** What about the IC50 [43] of the same molecule?
**A.** > 10 µM

**Q.** And the IC50 [44]?
**A.** > 10000 nM

**Q.** What about the IC50 [45] of the same molecule?
**A.** > 10000 nM

**Q.** What about the IC50 [46] of the same molecule?
**A.** > 10 µM

**Q.** And the IC50 [47]?
**A.** 5.37 µM

**Q.** What about the IC50 [48] of the same molecule?
**A.** 9.25 µM

**Q.** And the IC50 [49]?
**A.** 1460 nM

**Q.** What about the IC50 [50] of the same molecule?
**A.** > 10 µM

**Q.** And the IC50 [51]?
**A.** > 10 µM

**Q.** And the IC50 [52]?
**A.** > 10 µM

**Q.** CN(C)C/C=C/C(=O)Nc1cc2c(Nc3ccc(F)c(Cl)c3)ncnc2cc1O[C@H]1CCOC1 [AFATINIB] was tested. Which IC50 [1] did it give?
**A.** > 0.5 µM

**Q.** And the IC50 [2]?
**A.** 56.7 nM

**Q.** What about the IC50 [3] of the same molecule?
**A.** > 0.5 µM

**Q.** What about the IC50 [4] of the same molecule?
**A.** 53.2 nM

**Q.** What about the IC50 [5] of the same molecule?
**A.** > 0.5 µM

**Q.** What about the IC50 [6] of the same molecule?
**A.** > 0.5 µM

**Q.** What about the IC50 [7] of the same molecule?
**A.** > 0.5 µM

**Q.** And the IC50 [8]?
**A.** 448 nM

**Q.** What about the IC50 [9] of the same molecule?
**A.** > 0.5 µM

**Q.** And the IC50 [10]?
**A.** > 0.5 µM

**Q.** And the IC50 [11]?
**A.** > 0.5 µM

**Q.** And the IC50 [12]?
**A.** > 0.5 µM

**Q.** What about the IC50 [13] of the same molecule?
**A.** > 0.5 µM

**Q.** And the IC50 [14]?
**A.** > 0.5 µM

**Q.** What about the IC50 [15] of the same molecule?
**A.** > 500 nM

**Q.** What about the IC50 [16] of the same molecule?
**A.** > 500 nM

**Q.** And the IC50 [17]?
**A.** > 500 nM

**Q.** And the IC50 [18]?
**A.** > 500 nM

**Q.** And the IC50 [19]?
**A.** > 500 nM

**Q.** What about the IC50 [20] of the same molecule?
**A.** > 0.5 µM

**Q.** What about the IC50 [21] of the same molecule?
**A.** > 0.5 µM

**Q.** And the IC50 [22]?
**A.** > 0.5 µM

**Q.** And the IC50 [23]?
**A.** > 500 nM

**Q.** What about the IC50 [24] of the same molecule?
**A.** 131 nM

**Q.** What about the IC50 [25] of the same molecule?
**A.** > 0.5 µM

**Q.** What about the IC50 [26] of the same molecule?
**A.** > 0.5 µM

**Q.** And the IC50 [27]?
**A.** 31.9 nM

**Q.** What about the IC50 [28] of the same molecule?
**A.** > 0.5 µM

**Q.** And the IC50 [29]?
**A.** > 0.5 µM

**Q.** What about the IC50 [30] of the same molecule?
**A.** 484 nM

**Q.** What about the IC50 [31] of the same molecule?
**A.** > 0.5 µM

**Q.** What about the IC50 [32] of the same molecule?
**A.** > 0.5 µM

**Q.** And the IC50 [33]?
**A.** > 0.5 µM

**Q.** And the IC50 [34]?
**A.** > 0.5 µM

**Q.** What about the IC50 [35] of the same molecule?
**A.** > 0.5 µM

**Q.** And the IC50 [36]?
**A.** > 0.5 µM

**Q.** What about the IC50 [37] of the same molecule?
**A.** > 0.5 µM

**Q.** And the IC50 [38]?
**A.** > 0.5 µM

**Q.** And the IC50 [39]?
**A.** 37.3 nM

**Q.** And the IC50 [40]?
**A.** > 0.5 µM

**Q.** What about the IC50 [41] of the same molecule?
**A.** > 0.5 µM

**Q.** And the IC50 [42]?
**A.** > 0.5 µM

**Q.** And the IC50 [43]?
**A.** > 0.5 µM

**Q.** And the IC50 [44]?
**A.** 305 nM

**Q.** What about the IC50 [45] of the same molecule?
**A.** 59.8 nM

**Q.** What about the IC50 [46] of the same molecule?
**A.** > 0.5 µM

**Q.** What about the IC50 [47] of the same molecule?
**A.** > 0.5 µM

**Q.** And the IC50 [48]?
**A.** > 0.5 µM

**Q.** And the IC50 [49]?
**A.** > 500 nM

**Q.** What about the IC50 [50] of the same molecule?
**A.** > 0.5 µM

**Q.** And the IC50 [51]?
**A.** > 0.5 µM

**Q.** What about the IC50 [52] of the same molecule?
**A.** > 0.5 µM

From ChEMBL document CHEMBL1201861, “Genomics of Drug Sensitity in Cancer screening data, Wellcome Trust Sanger Institute”
